According to article doi:10.1101/2024.08.13.607785v1 (biorxiv, 2024):
Where two headings read alike, the source gives them in different places.

What was measured:
Experiment in all cases: biochemical
Design in all cases: species or system human cell line lysate
[1] = biological target: Calcium/calmodulin-dependent protein kinase type II subunit alpha ; CAMK2A ; Q9UQM7 (Homo sapiens, UniProt Q9UQM7)
[2] = biological target: DNA-dependent protein kinase catalytic subunit ; PRKDC ; P78527 (Homo sapiens, UniProt P78527)
[3] = biological target: T1, Ephrin type-B receptor 2 ; EPHB2 ; P29323 (Homo sapiens, UniProt P29323)
T1 sequence (P29323 1-1055): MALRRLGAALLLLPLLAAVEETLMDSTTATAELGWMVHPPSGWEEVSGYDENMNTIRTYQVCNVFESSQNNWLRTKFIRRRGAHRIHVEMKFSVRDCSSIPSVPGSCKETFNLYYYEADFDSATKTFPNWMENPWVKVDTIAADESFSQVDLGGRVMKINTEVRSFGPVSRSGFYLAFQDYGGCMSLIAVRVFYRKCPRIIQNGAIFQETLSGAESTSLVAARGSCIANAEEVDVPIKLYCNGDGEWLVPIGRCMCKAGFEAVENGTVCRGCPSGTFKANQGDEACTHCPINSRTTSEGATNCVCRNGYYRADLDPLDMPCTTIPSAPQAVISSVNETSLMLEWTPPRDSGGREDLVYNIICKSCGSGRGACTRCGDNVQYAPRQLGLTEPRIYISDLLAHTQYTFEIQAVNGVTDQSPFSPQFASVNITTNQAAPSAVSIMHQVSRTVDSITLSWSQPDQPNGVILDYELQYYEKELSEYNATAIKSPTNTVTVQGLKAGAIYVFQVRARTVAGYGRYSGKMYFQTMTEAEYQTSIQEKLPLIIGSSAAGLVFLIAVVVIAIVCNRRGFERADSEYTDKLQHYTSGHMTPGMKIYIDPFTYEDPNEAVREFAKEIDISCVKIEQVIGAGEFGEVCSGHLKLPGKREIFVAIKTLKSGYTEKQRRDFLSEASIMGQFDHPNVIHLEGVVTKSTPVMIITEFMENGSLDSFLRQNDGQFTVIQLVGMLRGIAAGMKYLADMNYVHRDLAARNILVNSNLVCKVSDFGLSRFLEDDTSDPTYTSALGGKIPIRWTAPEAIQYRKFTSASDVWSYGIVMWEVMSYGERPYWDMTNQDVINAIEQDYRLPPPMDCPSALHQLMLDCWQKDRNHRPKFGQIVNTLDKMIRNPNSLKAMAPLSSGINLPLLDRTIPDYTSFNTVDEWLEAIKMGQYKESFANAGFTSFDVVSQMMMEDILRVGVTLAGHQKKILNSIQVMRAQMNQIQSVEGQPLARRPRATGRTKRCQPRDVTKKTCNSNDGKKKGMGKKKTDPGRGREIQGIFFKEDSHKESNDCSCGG

[4] = biological target: Isoform Beta of cGMP-dependent protein kinase 1 ; PRKG1 ; Q13976-2 (Homo sapiens, UniProt Q13976)
[5] = biological target: Mitogen-activated protein kinase 3 ; MAPK3 ; P27361 (Homo sapiens, UniProt P27361)
[6] = biological target: Serine/threonine-protein kinase SIK2 ; SIK2 ; Q9H0K1 (Homo sapiens, UniProt Q9H0K1)
[7] = biological target: Tyrosine-protein kinase Fyn ; FYN ; P06241 (Homo sapiens, UniProt P06241)
[8] = read-out: BAY-1143572 (10 µM) / %Intensity relative to DMSO
[9] = read-out: BAY-1251152 (10 µM) / %Intensity relative to DMSO

DNA-dependent protein kinase catalytic subunit ; PRKDC ; P78527, sequence (P78527 whole entry, one chain of several): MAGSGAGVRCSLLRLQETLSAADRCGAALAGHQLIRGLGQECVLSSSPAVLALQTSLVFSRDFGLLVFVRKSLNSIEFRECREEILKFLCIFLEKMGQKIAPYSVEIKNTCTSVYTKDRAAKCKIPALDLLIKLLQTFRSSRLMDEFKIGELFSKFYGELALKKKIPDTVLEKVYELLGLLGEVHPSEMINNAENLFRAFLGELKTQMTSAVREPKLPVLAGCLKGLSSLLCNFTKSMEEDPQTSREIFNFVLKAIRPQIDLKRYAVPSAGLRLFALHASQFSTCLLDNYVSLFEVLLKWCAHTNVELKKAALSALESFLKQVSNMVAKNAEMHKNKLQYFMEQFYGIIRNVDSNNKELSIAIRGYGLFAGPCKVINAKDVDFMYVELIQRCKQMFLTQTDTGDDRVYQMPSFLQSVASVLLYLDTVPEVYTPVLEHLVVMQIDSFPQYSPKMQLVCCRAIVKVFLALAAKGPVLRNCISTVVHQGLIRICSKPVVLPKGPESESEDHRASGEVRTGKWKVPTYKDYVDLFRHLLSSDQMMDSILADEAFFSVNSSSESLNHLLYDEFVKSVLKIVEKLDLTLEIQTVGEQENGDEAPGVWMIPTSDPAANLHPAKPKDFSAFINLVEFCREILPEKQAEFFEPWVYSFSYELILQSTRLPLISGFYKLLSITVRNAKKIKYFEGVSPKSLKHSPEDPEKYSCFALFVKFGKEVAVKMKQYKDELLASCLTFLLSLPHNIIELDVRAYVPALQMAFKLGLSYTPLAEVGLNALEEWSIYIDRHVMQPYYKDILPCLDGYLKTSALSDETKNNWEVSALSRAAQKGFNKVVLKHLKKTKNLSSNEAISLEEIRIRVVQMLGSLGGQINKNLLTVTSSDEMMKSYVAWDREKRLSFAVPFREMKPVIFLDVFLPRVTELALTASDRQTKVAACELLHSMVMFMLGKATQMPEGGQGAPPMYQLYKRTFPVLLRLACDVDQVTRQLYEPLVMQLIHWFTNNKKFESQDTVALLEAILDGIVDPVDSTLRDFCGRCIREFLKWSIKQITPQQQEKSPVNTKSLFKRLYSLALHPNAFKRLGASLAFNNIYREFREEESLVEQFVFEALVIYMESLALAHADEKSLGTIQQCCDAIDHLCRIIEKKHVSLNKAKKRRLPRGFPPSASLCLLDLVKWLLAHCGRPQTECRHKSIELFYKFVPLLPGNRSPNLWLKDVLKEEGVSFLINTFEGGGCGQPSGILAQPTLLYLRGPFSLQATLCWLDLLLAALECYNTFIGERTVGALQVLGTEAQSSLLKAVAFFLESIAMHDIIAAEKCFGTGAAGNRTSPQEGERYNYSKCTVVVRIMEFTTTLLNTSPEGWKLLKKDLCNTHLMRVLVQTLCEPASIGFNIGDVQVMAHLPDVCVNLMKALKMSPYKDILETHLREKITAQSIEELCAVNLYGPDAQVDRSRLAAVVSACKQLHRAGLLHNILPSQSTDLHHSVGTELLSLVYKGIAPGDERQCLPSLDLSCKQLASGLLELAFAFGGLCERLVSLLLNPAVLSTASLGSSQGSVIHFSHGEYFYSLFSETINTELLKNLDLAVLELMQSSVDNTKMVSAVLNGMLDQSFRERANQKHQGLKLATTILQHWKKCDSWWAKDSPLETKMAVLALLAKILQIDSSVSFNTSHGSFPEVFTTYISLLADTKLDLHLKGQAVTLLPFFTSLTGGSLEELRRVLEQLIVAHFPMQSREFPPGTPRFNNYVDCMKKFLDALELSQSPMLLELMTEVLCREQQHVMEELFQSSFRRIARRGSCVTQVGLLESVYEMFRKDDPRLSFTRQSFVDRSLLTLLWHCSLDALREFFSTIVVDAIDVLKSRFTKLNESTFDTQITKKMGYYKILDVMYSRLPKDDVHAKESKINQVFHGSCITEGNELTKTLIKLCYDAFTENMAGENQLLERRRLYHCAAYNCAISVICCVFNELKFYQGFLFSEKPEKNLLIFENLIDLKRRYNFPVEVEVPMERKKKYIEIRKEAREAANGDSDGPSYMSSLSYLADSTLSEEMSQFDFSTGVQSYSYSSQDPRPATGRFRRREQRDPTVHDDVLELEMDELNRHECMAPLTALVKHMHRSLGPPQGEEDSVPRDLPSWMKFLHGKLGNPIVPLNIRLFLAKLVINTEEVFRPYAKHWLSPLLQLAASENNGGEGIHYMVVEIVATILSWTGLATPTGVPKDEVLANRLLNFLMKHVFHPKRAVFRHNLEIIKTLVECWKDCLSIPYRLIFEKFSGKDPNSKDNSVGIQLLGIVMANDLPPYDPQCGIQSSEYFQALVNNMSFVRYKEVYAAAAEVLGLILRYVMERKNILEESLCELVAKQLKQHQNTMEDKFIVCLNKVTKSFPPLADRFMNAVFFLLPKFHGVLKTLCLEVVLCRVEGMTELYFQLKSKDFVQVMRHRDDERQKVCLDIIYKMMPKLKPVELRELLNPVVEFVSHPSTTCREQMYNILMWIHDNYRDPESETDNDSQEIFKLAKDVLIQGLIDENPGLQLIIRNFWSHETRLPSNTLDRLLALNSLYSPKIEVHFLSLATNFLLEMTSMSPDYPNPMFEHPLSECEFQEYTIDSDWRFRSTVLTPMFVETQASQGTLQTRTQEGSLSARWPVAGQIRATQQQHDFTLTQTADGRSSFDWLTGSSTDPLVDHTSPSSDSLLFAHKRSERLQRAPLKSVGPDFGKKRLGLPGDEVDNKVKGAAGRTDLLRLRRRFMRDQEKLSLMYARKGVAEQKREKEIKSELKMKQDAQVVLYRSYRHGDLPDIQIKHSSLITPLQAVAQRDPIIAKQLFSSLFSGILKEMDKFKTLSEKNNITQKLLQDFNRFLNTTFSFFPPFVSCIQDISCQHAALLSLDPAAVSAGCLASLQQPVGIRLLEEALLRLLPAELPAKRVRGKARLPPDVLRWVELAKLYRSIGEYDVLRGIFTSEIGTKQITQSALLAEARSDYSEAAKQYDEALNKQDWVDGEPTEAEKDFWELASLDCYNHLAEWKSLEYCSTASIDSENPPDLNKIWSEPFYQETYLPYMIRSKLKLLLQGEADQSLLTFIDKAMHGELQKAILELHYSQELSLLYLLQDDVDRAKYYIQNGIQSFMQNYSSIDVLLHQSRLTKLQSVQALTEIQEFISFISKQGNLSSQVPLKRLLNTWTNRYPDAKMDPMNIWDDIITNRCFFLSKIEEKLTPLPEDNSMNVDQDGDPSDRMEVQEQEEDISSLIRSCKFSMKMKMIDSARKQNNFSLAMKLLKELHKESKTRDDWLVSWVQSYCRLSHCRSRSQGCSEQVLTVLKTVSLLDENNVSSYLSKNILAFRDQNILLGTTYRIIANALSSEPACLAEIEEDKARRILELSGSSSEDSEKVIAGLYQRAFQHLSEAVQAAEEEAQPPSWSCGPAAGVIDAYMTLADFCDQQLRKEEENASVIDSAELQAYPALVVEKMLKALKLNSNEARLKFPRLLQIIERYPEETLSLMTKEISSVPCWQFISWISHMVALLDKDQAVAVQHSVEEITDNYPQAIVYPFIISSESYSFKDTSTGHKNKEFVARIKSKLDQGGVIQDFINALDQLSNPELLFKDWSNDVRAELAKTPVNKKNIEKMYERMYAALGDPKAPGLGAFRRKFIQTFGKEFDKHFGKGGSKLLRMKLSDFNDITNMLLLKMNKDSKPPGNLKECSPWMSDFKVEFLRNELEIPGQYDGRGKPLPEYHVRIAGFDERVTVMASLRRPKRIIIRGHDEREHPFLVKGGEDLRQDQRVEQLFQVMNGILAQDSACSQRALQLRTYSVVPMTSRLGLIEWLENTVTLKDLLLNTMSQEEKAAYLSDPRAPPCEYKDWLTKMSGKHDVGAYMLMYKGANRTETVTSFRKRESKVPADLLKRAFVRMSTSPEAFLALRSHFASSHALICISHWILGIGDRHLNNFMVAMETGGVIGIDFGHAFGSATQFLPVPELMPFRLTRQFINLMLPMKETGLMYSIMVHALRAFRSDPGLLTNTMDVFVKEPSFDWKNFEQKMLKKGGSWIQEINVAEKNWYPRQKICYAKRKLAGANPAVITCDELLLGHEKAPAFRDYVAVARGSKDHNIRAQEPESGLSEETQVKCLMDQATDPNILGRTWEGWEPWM
Calcium/calmodulin-dependent protein kinase type II subunit alpha ; CAMK2A ; Q9UQM7, sequence (Q9UQM7 whole entry, one chain of several): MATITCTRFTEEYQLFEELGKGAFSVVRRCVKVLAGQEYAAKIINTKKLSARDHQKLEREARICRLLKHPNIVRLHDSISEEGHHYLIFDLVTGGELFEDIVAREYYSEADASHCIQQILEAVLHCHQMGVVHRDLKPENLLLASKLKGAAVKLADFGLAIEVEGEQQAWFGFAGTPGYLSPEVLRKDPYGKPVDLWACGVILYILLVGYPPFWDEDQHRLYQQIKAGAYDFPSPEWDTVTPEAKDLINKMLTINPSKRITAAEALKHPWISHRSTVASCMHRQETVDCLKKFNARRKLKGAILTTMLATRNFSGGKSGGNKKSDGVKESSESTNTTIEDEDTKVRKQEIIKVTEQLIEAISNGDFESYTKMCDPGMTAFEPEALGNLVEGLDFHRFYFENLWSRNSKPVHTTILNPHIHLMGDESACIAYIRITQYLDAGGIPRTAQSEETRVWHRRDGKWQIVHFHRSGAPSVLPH
Mitogen-activated protein kinase 3 ; MAPK3 ; P27361, sequence (P27361 whole entry): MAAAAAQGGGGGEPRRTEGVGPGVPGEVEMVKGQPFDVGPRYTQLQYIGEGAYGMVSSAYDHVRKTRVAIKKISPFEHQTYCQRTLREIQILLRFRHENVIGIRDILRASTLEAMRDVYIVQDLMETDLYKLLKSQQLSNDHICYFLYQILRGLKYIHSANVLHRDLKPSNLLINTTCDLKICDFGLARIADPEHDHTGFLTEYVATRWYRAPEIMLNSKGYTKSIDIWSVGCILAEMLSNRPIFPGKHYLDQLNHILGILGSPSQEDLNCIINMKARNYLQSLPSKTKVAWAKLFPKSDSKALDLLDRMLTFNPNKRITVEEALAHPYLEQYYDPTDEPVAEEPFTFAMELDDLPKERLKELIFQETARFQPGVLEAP

Compound | remaining activity at 10 µM [1, 8] [%] | remaining activity at 10 µM [2, 8] [%] | remaining activity at 10 µM [3, 8] [%] | remaining activity at 10 µM [4, 8] [%] | remaining activity at 10 µM [5, 8] [%] | remaining activity at 10 µM [6, 8] [%] | remaining activity at 10 µM [7, 8] [%] | remaining activity at 10 µM [1, 9] [%] | remaining activity at 10 µM [2, 9] [%] | remaining activity at 10 µM [3, 9] [%] | remaining activity at 10 µM [4, 9] [%] | remaining activity at 10 µM [5, 9] [%] | remaining activity at 10 µM [6, 9] [%] | remaining activity at 10 µM [7, 9] [%]
COc1cc(F)ccc1-c1ncnc(Nc2cccc(C[S@](C)(=N)=O)c2)n1 [BAY-1143572] | 130 | 106 | 84.3 | 130 | 104 | 102 | 92.2 | – | – | – | – | – | – | –
COc1cc(F)ccc1-c1cc(Nc2cc(CS(C)(=N)=O)ccn2)ncc1F (centres unmarked) [BAY-1251152] | – | – | – | – | – | – | – | 115 | 107 | 105 | 117 | 96.8 | 106 | 103
